This note sets out measurements from PubChem BioAssay (NCI).

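Compound exposure: 48 hours, 5 concentrations, 96-well plates. GI50 = concentration required for 50% inhibition of growth. TGI marks complete inhibition of growth.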 Where only a bound is given, the exact number is not on record here.

Among the test systems are U251 CNS; HCC-2998 colon; NCI-H460 lung; UACC-257 melanoma; UO-31 renal; HL-60(TB) leukemia; NCI-H226 lung; DU-145 prostate; A549 NSCLC; HOP-62 NSCLC.
Common to all, as to assay: NCI anticancer screen, dose series, 48 h

For `COc1ccc(-c2cc(-c3cccn3C)c(C#N)c(N)n2)cc1OC`, the GI50 in the experiment on U251 CNS is > 100 µM; with HCC-2998 colon, > 100 µM; with NCI-H460 lung it was > 100 µM; with UACC-257 melanoma, > 100 µM; with UO-31 renal, 98.3 µM; in the experiment on HL-60(TB) leukemia, 19.6 µM. Also, the results for the GI50 in the experiment with NCI-H226 lung, in the experiment with DU-145 prostate and with A549 NSCLC were > 100 µM, 91.6 µM and > 100 µM, respectively. For the same compound, the TGI in the experiment with U251 CNS, in the experiment on HCC-2998 colon, with NCI-H460 lung, with UACC-257 melanoma, in the experiment on UO-31 renal and in the experiment on HL-60(TB) leukemia was > 100 µM throughout. For the same compound, the TGI with NCI-H226 lung, with DU-145 prostate and in the experiment with A549 NSCLC was > 100 µM each time.
For `O=C(CCCN1CC=C(n2c(=O)[nH]c3ccccc32)CC1)c1ccc(F)cc1`, the GI50 is 48 µM with HCC-2998 colon; 35.2 µM with NCI-H460 lung; 60.2 µM with UACC-257 melanoma; 27.5 µM with UO-31 renal; 24.3 µM in the experiment on HL-60(TB) leukemia; 57.6 µM in the experiment with HOP-62 NSCLC. In addition, the figures for the GI50 in the experiment with NCI-H226 lung, with DU-145 prostate and with A549 NSCLC were 25.5 µM, 68.1 µM and 70.2 µM, respectively. Also, the TGI in the experiment on HCC-2998 colon is > 100 µM; with NCI-H460 lung it was > 100 µM; in the experiment on UACC-257 melanoma, > 100 µM; with UO-31 renal, > 100 µM; in the experiment with HL-60(TB) leukemia it was 67.4 µM; in the experiment with HOP-62 NSCLC, > 100 µM. Also, the TGI in the experiment on NCI-H226 lung, in the experiment with DU-145 prostate and in the experiment on A549 NSCLC was > 100 µM in each case.
Consider `N#CC1Nc2ccccc2[C@@H](O)C1O` (some centres not stated), for which the TGI in the experiment on U251 CNS, in the experiment with HCC-2998 colon, in the experiment on NCI-H460 lung, in the experiment with UACC-257 melanoma, with HL-60(TB) leukemia and in the experiment with HOP-62 NSCLC was > 100 µM throughout. Also, the TGI with DU-145 prostate and in the experiment with A549 NSCLC was > 100 µM each time.
In the case of `O=C(O)c1cccc(OCCO)c1`, the TGI in the experiment with U251 CNS, in the experiment on NCI-H460 lung, in the experiment with UACC-257 melanoma, with UO-31 renal, with HL-60(TB) leukemia and in the experiment on HOP-62 NSCLC was > 100 µM each time. Besides, the TGI with NCI-H226 lung, in the experiment on DU-145 prostate and in the experiment with A549 NSCLC was > 100 µM in each case.
Turning to `Nc1nc(Cl)cc(NCCO)n1`, the TGI in the experiment with U251 CNS, in the experiment on HCC-2998 colon, in the experiment on NCI-H460 lung, in the experiment on UACC-257 melanoma, in the experiment with UO-31 renal and in the experiment on HOP-62 NSCLC was > 100 µM each time. For the same compound, the TGI with NCI-H226 lung, in the experiment with DU-145 prostate and in the experiment on A549 NSCLC was > 100 µM each time.
For the compound `Nc1c(C(=O)N/N=C/c2ccc(-c3ccc(Cl)cc3)o2)cnn1-c1ccnc2c(C(F)(F)F)cccc12`, the GI50 with U251 CNS, with HCC-2998 colon, in the experiment with NCI-H460 lung, with UO-31 renal, in the experiment on HL-60(TB) leukemia and with HOP-62 NSCLC was > 100 µM throughout. Moreover, the results for the GI50 in the experiment with NCI-H226 lung, in the experiment with DU-145 prostate and in the experiment with A549 NSCLC were > 100 µM, > 100 µM and 83.9 µM, respectively. In addition, the TGI in the experiment on U251 CNS, with HCC-2998 colon, in the experiment on NCI-H460 lung, in the experiment on UO-31 renal, with HL-60(TB) leukemia and with HOP-62 NSCLC was > 100 µM in each case. Further, the TGI in the experiment with NCI-H226 lung, in the experiment with DU-145 prostate and with A549 NSCLC was > 100 µM in each case.
For the compound `C#CC(=O)Nc1cccc(Nc2nc3c(c(NCc4ccccc4)n2)CCCC3)c1`, the GI50 with U251 CNS was 0.0208 µM; with HCC-2998 colon, 1.36 µM; in the experiment with UO-31 renal it was < 0.01 µM; in the experiment on HOP-62 NSCLC it was 0.0612 µM; in the experiment with NCI-H226 lung it was 0.147 µM; in the experiment with DU-145 prostate it was 0.446 µM. Moreover, the TGI with U251 CNS was 0.0776 µM; with HCC-2998 colon, 2.9 µM; in the experiment with UO-31 renal it was < 0.01 µM; with HOP-62 NSCLC it was 0.435 µM; in the experiment with NCI-H226 lung, 0.551 µM; in the experiment on DU-145 prostate, 1.95 µM.
Consider `Cc1c(C2Nc3ccccc3C2C)[nH]c2ccccc12` (configuration not stated), for which the GI50 is 12.6 µM in the experiment on HCC-2998 colon; 0.43 µM in the experiment on NCI-H460 lung; 12.4 µM in the experiment with UACC-257 melanoma; 6.27 µM in the experiment with UO-31 renal; 13.1 µM in the experiment with HL-60(TB) leukemia; 12.1 µM in the experiment on HOP-62 NSCLC. Moreover, the GI50 in the experiment on NCI-H226 lung was 10.9 µM; in the experiment with DU-145 prostate, 14.5 µM; with A549 NSCLC, 1.67 µM. In addition, the TGI stood at 26.6 µM with HCC-2998 colon; 18.3 µM in the experiment with NCI-H460 lung; 28.3 µM with UACC-257 melanoma; 22.1 µM in the experiment with UO-31 renal; 38.3 µM in the experiment with HL-60(TB) leukemia; 26.1 µM in the experiment on HOP-62 NSCLC. The results for the TGI in the experiment with NCI-H226 lung, with DU-145 prostate and in the experiment with A549 NSCLC were 31.3 µM, 38.7 µM and 24.1 µM, respectively.
For the compound `CSC1(CC(=O)N(C)C)C(=O)Nc2ccccc21` (configuration not stated), the TGI with U251 CNS, in the experiment on HCC-2998 colon, in the experiment on NCI-H460 lung, with UACC-257 melanoma, in the experiment with UO-31 renal and in the experiment on HOP-62 NSCLC was > 100 µM in each case. For the same compound, the TGI in the experiment on NCI-H226 lung, in the experiment on DU-145 prostate and with A549 NSCLC was > 100 µM each time.
Turning to `OCCCCC#Cc1ccccc1C#Cc1cccc(O)c1`, the GI50 was 15 µM with U251 CNS; 19.1 µM in the experiment with HCC-2998 colon; 18.5 µM in the experiment with NCI-H460 lung; 18.1 µM in the experiment on UACC-257 melanoma; 15.9 µM with UO-31 renal; 19.4 µM in the experiment on HL-60(TB) leukemia. Also, the GI50 in the experiment with NCI-H226 lung was 22 µM; in the experiment on DU-145 prostate, 17.4 µM; in the experiment on A549 NSCLC, 15.7 µM. Moreover, the TGI in the experiment with U251 CNS was determined as 31.3 µM; with HCC-2998 colon it was 35.5 µM; in the experiment on NCI-H460 lung, 40.7 µM; with UACC-257 melanoma, 33.1 µM; in the experiment with UO-31 renal it was 32.5 µM; with HL-60(TB) leukemia, 41.9 µM. The TGI was determined as 47.3 µM in the experiment with NCI-H226 lung, 40.9 µM with DU-145 prostate and 32.2 µM in the experiment on A549 NSCLC.
